Data taken from PMC5218480 (PLoS ONE, 2017).

System: MV-4-11 cells
Experiment: Gene expression microarray analysis (Affymetrix PrimeView) and GSEA
Type: cell-based, human
Settings: gene FGFR1OP, FGFR1 oncogene partner; Azacitidine 1 mM; LIST F

Nc1ncn([C@@H]2O[C@H](CO)[C@@H](O)[C@H]2O)c(=O)n1 [azacitidine]
RFU, FGFR1OP (ProbeSet 11751329_s_at): 410.33 RFU
